# Assay results as given in publication PMC7591920, “A protein tertiary structure mimetic modulator of the Hippo signalling pathway” (Nature Communications, 2020).
# Bridge positions count the residues as written; N and C are the ends. Square brackets hold non-standard residues; d marks the D form. Peptide text beside a SMILES is read from it. AEEA = NCCOCCOCC(=O)O
# Key:
# [1] = Circular dichroism, calculated helicity; type: physicochemical; settings: 10 mM sodium phosphate pH 7.4, 75 to 10 µM peptide, CDNN software PEPFIT mode, unbound peptide
# Protocol: The spectra were obtained using a Jasco J-715 and a cuvette 0.1 mm. Represented CD spectra are an average of five measurements done between λ = 190 and 300 nm with a continuous scan mode, 50 nm min^−1 scan speed and data point every 1 nm. The α-helicity was calculated using CDNN software using the PEPFIT mode[42].
# YAP–TEAD interaction = assay: Proximity ligation assay (PLA) in RKO cells; type: cell-based; settings: 24 h incubation, c = 30 µM
# Protocol: Ca. 5000 RKO cells were seeded per well in black 96-well plates with glass bottom (#5241-20, MoBiTec) and treated with the peptides or DMSO as vehicle control. After 24 h, the cells were fixed for 10 min using 4% paraformaldehyde (#UN2209, AppliChem) in PBS prior to permeabilization with 0.1% Triton X-100 (#39795.02, Serva) in PBS for 10 min. […] The cells were treated with the corresponding PLA probes (donkey anti-rabbit PLUS, #DUO92002, dilution 1:5; donkey anti-mouse MINUS, #DUO92004, dilution 1:5, Sigma-Aldrich) and with the Duolink In Situ Detection Orange Kit (#DUO92007, Sigma-Aldrich) for ligation and amplification according to the manufacturer's instructions. Finally, the cells were treated with 1 μg mL^-1 DAPI (#D9542, Sigma-Aldrich) to stain nuclei for further microscopy analysis. Images were acquired using a Zeiss Observer Z1 microscope with an 63× oil objective. Picture data were analysed by the ImageJ “analyze particles” macro to count PLA spots per cell. Ten pictures were counted for each condition per experiment. Statistical analysis was performed using Student's paired t test.
# hTEAD1–VGL4 complex = biological target: T1, hTEAD1–VGL4 complex (Homo sapiens, UniProt P28347); assay: Competitive FP, displacement of labelled VGL4(203–256) from hTEAD1; type: binding
# T1 construct: CDNA of hTEAD1(209–426) fused with an N-terminal GST tag; GST (N); 6x His-tag (N); 3C protease cleavage site (N); made in house; host or cells: Escherichia coli BL21 DE3 RIL(K+); tracer peptide synthetic
# T1 sequence (P28347 209-426, one chain of several): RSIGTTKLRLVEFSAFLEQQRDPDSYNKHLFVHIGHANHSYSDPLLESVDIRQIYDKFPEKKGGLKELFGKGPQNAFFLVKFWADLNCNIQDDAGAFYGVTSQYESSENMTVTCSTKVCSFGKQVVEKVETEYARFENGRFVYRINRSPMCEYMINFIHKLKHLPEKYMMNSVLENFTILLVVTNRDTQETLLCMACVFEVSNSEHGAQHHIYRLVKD
# Protocol: Next, the ability of the peptides in our panel to inhibit the TEAD–VGL4 interaction was investigated. For this purpose, a competition pull-down experiment was performed using biotinylated VGL4(203–256) (b-1) as the bait for GST-tagged hTEAD1. b-1 was immobilized on streptavidin magnetic beads and hTEAD1 pull-down was detected using gel electrophoresis (Fig. 3d). […] To evaluate how inhibitor binding discriminates between these two binding partners, we performed a competitive binding assay based on FP.
# Supplementary Figure 15│ Binding studies of hTEAD1 by fluorescence polarization. Dissociation constants were measured […]
# The fluorescent cofactor (10 nM) are directly titrated with hTEAD1. After 1 hour of incubation, fluorescence polarization was measured, and a non-linear fitting was applied to the curves to determine the […]
# In the competitive binding assay, first a complex with the fluorescent cofactor (10 nM) and hTEAD1 (100 nM) was formed and after 1 hour of incubation, the unlabelled peptide was titrated. After 1 hour of incubation, fluorescence polarization was measured, and a non-linear fitting was applied to the curves to determine the half maximal inhibitory concentration. (c) Competition assay […]
# Mean ± SEM of triplicates were plotted for all data. Source data are provided as a Source Data file.
# (1 picture or pasted object on this page, not shown here)
# TEAD target genes = assay: qPCR analysis of TEAD target genes in cardiomyocytes from human ES cell line (H7); type: cell-based; settings: c = 30 µM, t = 18 h
# [2] = Peptide stability in cell culture media with 10% FBS; settings: 30 µM peptide, MEM + 10% FBS, 37 °C, HPLC/MS, duplicates
# Protocol: A total of 30 µM of the peptide was incubated in MEM media supplemented with 10% FBS at 37 °C. At the indicated time point, 25 µL of the sample was withdrawn, mixed with an equal volume of the internal standard solution (6 µM Fmoc-Arg(Pbf)-OH), kept on ice for 15 min followed by centrifugation (16×g) at 4 °C for 5 min. The supernatant was analysed with LC-MS (UltiMate 3000 UHPLC Systems) using C18 reverse phase column (Nucleodur, 1.8 µm C18 gravity, 2 mm) and Thermo Orbitrap Velos Pro ETD. The peptide absorbance (λ = 280 nm) or the mass spectrometry peak intensity relative to that of the internal standard peak intensity was graphed. The stability experiments were performed in duplicates.
# YAP = YAP localization assay in juvenile rat cardiomyocytes; type: cell-based; settings: for YAP ratio (nucleus/cytoplasm), Mean: 4 h, primary juvenile rat cardiomyocytes, DMSO mean 2.99; for YAP ratio in cardiomyocytes (nucleus/cytoplasm): fluorescence immunocytochemistry, 8 Hours, mean of n = 3
# Protocol: We analysed the YAP sub-cellular distribution in cardiomyocytes by means of fluorescence intensity after immunocytochemistry. After 3 days in culture, the cardiac cells were treated and fixed 4, 8, and 24 h after treatment. […] Secondary antibodies were used to detect the primary antibodies (goat anti-mouse Alexa Fluor 568, A-11004, dilution 1:1000 and goat anti-rabbit AlexaFluor 488, A-11008, dilution 1:1000, both from Thermo Fisher Scientific) and nuclei were counterstained with DAPI (2-(4-amidinophenyl)-1H-indole-6-carboxamidine, dilution 1:1000, Roth). The samples were then imaged and analysed on an ImageXpress XL automated microscope (Molecular Devices). […] Data are depicted as means ± SEM.
Structure (SMILES),Helicity (CD) [1] [%],Effect on YAP–TEAD complexes (PLA) (YAP–TEAD interaction),required concentration for VGL4 competition in the homogeneous FP-based competition assay (hTEAD1–VGL4 complex; hTEAD1),"IC50 (hTEAD1–VGL4 complex; labelled VGL4(203–256) 10 nM + hTEAD1 100 nM pre-incubated 1 h, unlabelled peptide titrated, 1 h, triplicates, read-out: IC50, inhibition of hTEAD1–VGL4 complex) [µM]",Effect on expression of TEAD target genes (TEAD target genes; qPCR),"RQ (relative target quantity) (TEAD target genes; target gene ANKRD1, RT-qPCR)","RQ (relative target quantity) (TEAD target genes; target gene CTGF, RT-qPCR)","RQ (relative target quantity) (TEAD target genes; target gene CYR61, RT-qPCR)","RQ (relative target quantity) (TEAD target genes; target gene SERPINE1, RT-qPCR)",peptide intact after 24 h [2],"YAP ratio (nucleus/cytoplasm), Mean (YAP; 5 µM)","YAP ratio (nucleus/cytoplasm), Mean (YAP; 5 µM, listed as peptide 7)","YAP ratio (nucleus/cytoplasm), Mean (YAP; 10 µM)","YAP ratio (nucleus/cytoplasm), Mean (YAP; 10 µM, listed as peptide 7)",YAP ratio in cardiomyocytes (nucleus/cytoplasm) (YAP; 5 µM of 7),YAP ratio in cardiomyocytes (nucleus/cytoplasm) (YAP; 10 µM of 7),"Effect on sub-cellular distribution of YAP (YAP; juvenile rat cardiomyocytes, 4 h treatment, vs vehicle control)"
CC[C@H](C)[C@@H]1NC(=O)[C@H](CCC(N)=O)NC(=O)[C@H](CC(C)C)NC(=O)[C@H](Cc2c[nH]c3ccccc23)NC(=O)[C@H]([C@@H](C)O)NC(=O)[C@H](CC(=O)O)NC(=O)CNC(=O)[C@H](CC(C)C)NC(=O)[C@H](C)NC(=O)[C@H](CCCCN)NC(=O)[C@H](C)NC(=O)[C@H](Cc2ccccc2)NC(=O)[C@H](Cc2c[nH]cn2)NC(=O)[C@H](CC(=O)O)NC(=O)[C@@H](NC(=O)[C@@H](NC(=O)[C@H](CO)NC(C)=O)C(C)C)CCC(=O)NCCCC[C@@H](C(=O)N[C@@H](C)C(=O)N[C@@H](C)C(N)=O)NC1=O [4E] (Ac-SVEDHFAKALGDTWLQIKAA-NH2; lactam 3-18),23,only shows a small change in PLA events,–,–,–,–,–,–,–,–,–,–,–,–,–,–,–
CC[C@H](C)[C@@H]1NC(=O)[C@H](CCC(N)=O)NC(=O)[C@H](CC(C)C)NC(=O)[C@H](Cc2c[nH]c3ccccc23)NC(=O)[C@H]([C@@H](C)O)NC(=O)[C@H](CC(=O)O)NC(=O)CNC(=O)[C@H](CC(C)C)NC(=O)[C@H](C)NC(=O)[C@H](CCCCN)NC(=O)[C@H](C)NC(=O)[C@H](Cc2ccccc2)NC(=O)[C@H](Cc2c[nH]cn2)NC(=O)[C@H](CC(=O)O)NC(=O)[C@@H](NC(=O)[C@@H](NC(=O)[C@H](CO)NC(=O)COCCOCCNC(=O)[C@H](CCC(N)=O)NC(=O)[C@@H]2CCCN2C(=O)[C@H](CCCNC(=N)N)NC(=O)[C@H](CCCNC(=N)N)NC(=O)[C@H](CCCNC(=N)N)NC(=O)[C@H](CCC(N)=O)NC(=O)[C@H](CCCNC(=N)N)NC(=O)[C@H](CCCNC(=N)N)NC(=O)[C@H](CCCCN)NC(=O)[C@H](CCCCN)NC(=O)[C@H](CCCNC(=N)N)NC(=O)CNC(C)=O)C(C)C)CCC(=O)NCCCC[C@@H](C(=O)N[C@@H](C)C(=O)N[C@@H](C)C(N)=O)NC1=O [compound 7] (Ac-GRKKRRQRRRPQ[AEEA]SVEDHFAKALGDTWLQIKAA-NH2; lactam 16-31),–,an increase in YAP–TEAD complexes,ca. 10 µM,5.46 ± 0.253,"increased levels of the cell cycle genes CYR61, CTGF, ANKRD1, and SEPINE1",4.731,1.987,3.964,3.52,about 80%,3.475,3.48,5.895,5.89,2.607,3.272,increased nuclear accumulation of YAP
